# Measured values as given in US20060111368A1, “Phosphodiesterase inhibitor” (Kyowa Hakko Kogyo Co., Ltd., priority 2002, published 2006).
# Structures can show the parent of a compound that is named as a salt.
# Legend:
# [1] = system: MDA-MB-231 (human breast cancer cell); assay: Cell growth inhibitory activity (MTT-type colorimetric assay); format: cell-based; conditions: MDA-MB-231, 72 h, 10 μmol/L, 3 days of culture
# Experimental: Cell Growth Inhibitory Activity
# Cell growth inhibitory activity of compound 12 was examined on MDA-MB-231 (human breast cancer cell: American Type Culture Collection) using an in-vitro cell growth assay [3-(4,5-dimethylthiazol-2-yl)-2,5-diphenyl tetrazolium bromide (MTT)]-type calorimetric assay [Leukemia, vol. 7, p. 1637, (1993)].
# MDA-MB-231 (2.5×10^4 cells/mL, 270 μL) was inoculated on a 48-well plate, and cultured overnight. In the culture, Leibovitz's L-15 (Gibco) containing. 10% fetal calf serum (Hi-Clone), 0.05 units/mL of penicillin (Gibco) and 0.05 μg/mL of streptomycin (Gibco) was used as a culture medium. 30 μL of compound 12 dissolved in the same medium containing 0.1% dimethyl sulfoxide (DMSO; Wako Pure Chemical Industries) was added to each well. After 3 days of culture, 30 μL of MTT (Dojin Kagaku Kenkyusho, adjusted to a concentration of 5 mg/mL with PBS) was added to each well. After 4 hours of culture, 900 μL of DMSO was added to dissolve the cells. The cell solution was moved to a 96-well plate in amounts of 200 μL each, and fluorescence intensity OD590-630was measured with an automated microplate reader EL340 (Biotech Instruments). […] (medium containing 0.1% DMSO alone was added) and OD (blank) is fluorescence intensity (OD590-630) of the same medium containing 0.1% DMSO. […]
# PDE10A = target: T1, PDE10A (Homo sapiens, UniProt Q9Y233); assay: Activity of inhibiting PDE10A activity ([3H]cAMP decomposition inhibiting test); format: biochemical; conditions: substrate [3H]cAMP 0.2 μmol/L
# T1 construct: made in house; host or cells: Sf9 insect cells (baculovirus, pVL1393)
# T1 sequence (Q9Y233 340-1055): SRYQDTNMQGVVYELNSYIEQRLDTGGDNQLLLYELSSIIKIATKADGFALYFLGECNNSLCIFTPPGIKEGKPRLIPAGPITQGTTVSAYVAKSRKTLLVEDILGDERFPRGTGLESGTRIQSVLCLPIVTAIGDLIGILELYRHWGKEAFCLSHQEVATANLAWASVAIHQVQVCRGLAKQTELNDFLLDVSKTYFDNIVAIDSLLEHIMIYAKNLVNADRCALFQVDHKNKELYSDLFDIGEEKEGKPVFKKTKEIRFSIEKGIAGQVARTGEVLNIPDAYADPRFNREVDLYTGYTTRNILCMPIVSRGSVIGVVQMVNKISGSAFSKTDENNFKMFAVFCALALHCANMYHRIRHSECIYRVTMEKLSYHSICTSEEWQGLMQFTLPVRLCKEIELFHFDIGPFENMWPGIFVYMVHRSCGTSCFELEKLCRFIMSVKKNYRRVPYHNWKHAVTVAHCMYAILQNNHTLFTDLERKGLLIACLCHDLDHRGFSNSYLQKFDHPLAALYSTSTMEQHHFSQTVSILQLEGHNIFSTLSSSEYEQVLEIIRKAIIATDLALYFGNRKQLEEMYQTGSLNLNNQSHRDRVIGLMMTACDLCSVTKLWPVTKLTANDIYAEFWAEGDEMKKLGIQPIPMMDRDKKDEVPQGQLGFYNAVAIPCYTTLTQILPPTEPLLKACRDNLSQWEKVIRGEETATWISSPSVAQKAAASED
# Experimental: Activity of Inhibiting PDE10A Activity (^3H]cAMP Decomposition Inhibiting Test)
# PCR was performed using DNAs having base sequences described in SEQ ID NO. 1 and SEQ ID NO. 2 as primers and human kidney cDNA as a template to prepare a plasmid containing amplified fragments. The plasmid was cleaved with restriction endonucleases Pst I and Xba I to obtain a Pst I-Xba I fragment of 0.7 kb.
# Meanwhile, Est clone (Cosmo Bio, Tokyo) of GenBank, ACCESSION WO 4835 was cleaved with restriction endonucleases Kpn I and Pst I to obtain a Kpn I-Pst I fragment of 1.5 kb.
# The resulting Pst I-Xba I fragment of 0.7 kb and Kpn I-Pst I fragment of 1.5 kb were subcloned in a Kpn I-Xba I site of pBluescript II KS(−) (STRATAGENE, La Jolla, Calif., USA),to construct a plasmid having a cDNA fragment completely including a catalyst region of PDE10A. Subsequently, the plasmid was cleaved with restriction endonucleases Kpn I and Not I to obtain a Kpn I-Not I fragment of 2.2 kb.
# The resulting Kpn I-Not I fragment of 2.2 kb and a linker having a BamH I-Kpn I cleavage surface prepared by synthetic DNA having base sequences described in SEQ ID NOS. 3 and 4 were subcloned in a BamH I-Not I site of pVL1393 (PharMingen, San Diego, Calif., USA) to obtain a plasmid for preparation of Baculovirus. The plasmid contains a DNA encoding a peptide in which methionine, FLAG tag and a peptide having a 64th to 779th amino acid sequence of PDE10A [GenBank, ACCESSION NP 006652: Gene, vol. 234, p. 109 (1999), J. Biol. Chem., vol. 274, p. 18438 (1999)] are bound in the order.
# The above gene recombinational manipulation was performed according to the method described in Molecular Cloning, 2nd edition, Cold Spring Harbor Laboratory Press, New York (1989).
# The expression of PDE10A was conducted according to the Baculovirus expression vector system manual (PharMingen) using insect cells. As insect cells, Sf9 cells (Asahi Technoglass, Tokyo) were used. Sf9 cells were infected with a supernatant (co-transfection sup) containing PDE10A expression virus prepared according to the manual, and cultured at 27° C. for 4 days. The cells were recovered, washed with a phosphate-buffered saline (PBS), and then suspended in an extraction solution [20 mmol/L Tris-acetate (pH 7.5), 2 mmol/L MgCl2, 1 mmol/L dithiothreitol, 1 mmol/L ethylenediaminetetraacetic acid (EDTA), 0.25 mol/L sucrose, 250 unit/mL aprotinin, 40 μg/mL phenylmethylsulfonyl fluoride, and 1 μg/mL pepstatin A]. The cells were disrupted in ice with the maximum output under conditions of 5 seconds and five times using an ultrasonic disruption machine (TOMY model UR-200R, TOMY, Tokyo). A soluble fraction was obtained by centrifugation under 10,000 rpm of the fraction at 4° C. for 30 minutes, and the resulting soluble fraction was used for measuring the PDE activity.
# The PDE activity was measured according to the method described in Methods Enzymol., vol. 159, p. 457 (1988).
# Using [^3H]cAMP as a substrate, an enzyme reaction was conducted in a reaction solution containing 300 μL of 50 mmol/L N,N-bis (2-hydroxyethyl)-2-aminoethanesulfonic acid (pH 7.2), 1 mmol/L MgCl2 and 0.1 mmol/L ethylene glycol-bis (β-aminoethyl ether)-N,N,N′,N′-tetraacetic acid: EGTA). The concentration of the substrate was 0.2 μmol/L. To 95 μL of an enzyme dilute solution were added 5 μL of a test compound (DMSO solution) and 200 μL of a substrate solution. The mixture was incubated at 30° C. for 20 minutes, and then HCl was added to stop the reaction. The reaction product (5′-AMP) was converted to adenosine using 5′-nucleotidase, and separated the unreacted product from the reactant by DEAE-Sephadex A-25 column (Amersham Pharmacia Biotech, Uppsala, Sweden). The elute was moved to scintillation vials, 6 mL of Ultima Gold (Packard Instrument, Meriden, Conn., USA) was added, and the radioactivity was measured for 2 minutes using a liquid scintillation counter (Beckman LS6500, Beckman, Tokyo),. […]
smiles,measurement,setting,value
"Cc1c(-c2ccc(-c3ccccc3CN3CCOCC3)cc2)nc2ccc(F)cc2c1CO [Compound 12, 6-Fluoro-4-hydroxymethyl-3-methyl-2-(2′-morpholinomethylbiphenyl-4-yl)quinoline dihydrochloride]",inhibition at 10 µM,[1],39%
same,inhibition at 1 µM,"PDE10A; Test compound concentration 1 μmol/L, read-out: [3H] cAMP decomposition inhibition rate (%)",96%
same,IC50,PDE10A; read-out: IC50 (concentration at which to inhibit [3H]cAMP decomposition by 50%),68 nM
